Measurements: US20120225937A1, “CRYSTALLINE FORMS AND PROCESSES FOR THE PREPARATION OF PG12 RECEPTOR AGONISTS” (Arena Pharmaceuticals, Inc., priority 2009, published 2012)
Counter-ions that a name gives are not always drawn.

Experiment: Dynamic moisture sorption (DMS) analysis of crystalline forms
Format: physicochemical
Details: for DMS: weight picked up at 90% RH / DMS: increase of weight at about 90% relative humidity: isotherm 25° C.; for DMS: increase of weight at about 90% relative humidity: physical-property summary tables; for Hygroscopicity by DMS (in words): up to 90% RH; for Change of crystal form during DMS analysis (in words): high % RH
Description: Further characterization with respect to hygroscopicity of the crystalline forms can be gauged by, for example, dynamic moisture sorption (DMS). The DMS features reported herein can vary by plus or minus about 5% relative humidity. The DMS features reported herein can also vary by plus or minus about 5% weight change.
Samples are prepared for dynamic moisture-sorption analysis by placing ˜5 mg to ˜20 mg of compound in a tarred sample holder on the VTI balance. The instrument is a dynamic moisture-sorption analyzer, VTI Corporation, SGA-100, equipment #0228. A drying step is run at 40° C. and ˜1% RH for 1 h. The isotherm temperature is 25° C. A % weight change over 10 min (5 weight readings) of dm/dt=0.010 or 2 h, whichever occurs first, is required before continuing to the next step. The water content of the sample equilibrated as described above was determined from 30% RH to 90% RH and then back down to 10% RH.

Structure (SMILES) | DMS: weight picked up at 90% RH | DMS: increase of weight at about 90% relative humidity | Hygroscopicity by DMS (in words) | Change of crystal form during DMS analysis (in words)
O.O=C(COC[C@H]1CC[C@H](COC(=O)N(c2ccccc2)c2ccc(Cl)cc2)CC1)NCCS(=O)(=O)[O-].O=C(COC[C@H]1CC[C@H](COC(=O)N(c2ccccc2)c2ccc(Cl)cc2)CC1)NCCS(=O)(=O)[O-].[Mg+2] [Compound Ia magnesium salt hydrate, magnesium 2-(2-(((1r,4r)-4-(((4-chlorophenyl)(phenyl)carbamoyloxy)methyl)cyclohexyl)methoxy)acetamido)ethanesulfonate hydrate] | 1.2 % by weight | FIG. 14: Increase of 1.2% weight at about 90% relative humidity | slightly hygroscopic | 
O.O=C(COC[C@H]1CC[C@H](COC(=O)N(c2ccccc2)c2ccc(Cl)cc2)CC1)NCCS(=O)(=O)[O-].O=C(COC[C@H]1CC[C@H](COC(=O)N(c2ccccc2)c2ccc(Cl)cc2)CC1)NCCS(=O)(=O)[O-].[Ca+2] [Compound Ia calcium salt hydrate I, calcium 2-(2-(((1r,4r)-4-(((4-chlorophenyl)(phenyl)carbamoyloxy)methyl)cyclohexyl)methoxy)acetamido)ethanesulfonate hydrate I] | about 7 % by weight | FIG. 17: Increase of 7% weight at about 90% relative humidity | hygroscopic | converting to Compound Ia calcium salt hydrate IV
O.O=C(COC[C@H]1CC[C@H](COC(=O)N(c2ccccc2)c2ccc(Cl)cc2)CC1)NCCS(=O)(=O)[O-].[K+] [Compound Ia potassium salt hydrate, potassium 2-(2-(((1r,4r)-4-(((4-chlorophenyl)(phenyl)carbamoyloxy)methyl)cyclohexyl)methoxy)acetamido)ethanesulfonate hydrate] | 3-4 % by weight |  | slightly hygroscopic | 
O.O=C(COC[C@H]1CC[C@H](COC(=O)N(c2ccccc2)c2ccc(Cl)cc2)CC1)NCCS(=O)(=O)O [Compound Ia free acid hydrate, 2-(2-(((1r,4r)-4-(((4-chlorophenyl)(phenyl)carbamoyloxy)methyl)cyclohexyl)methoxy)acetamido)ethanesulfonic acid hydrate] | over 10 % by weight | FIG. 3: Increase of about 10% weight at about 90% relative | hygroscopic | form a new hydrate crystal phase at high % RH values
N=C(N)NCCC[C@H](N)C(=O)O.O.O=C(COC[C@H]1CC[C@H](COC(=O)N(c2ccccc2)c2ccc(Cl)cc2)CC1)NCCS(=O)(=O)O [Compound Ia L-arginine salt hydrate, L-arginine 2-(2-(((1r,4r)-4-(((4-chlorophenyl)(phenyl)carbamoyloxy)methyl)cyclohexyl)methoxy)acetamido)ethanesulfonate hydrate] | about 1 % by weight | FIG. 31: Increase of about 1% weight at about 90% relative | slightly hygroscopic | 
O=C(COC[C@H]1CC[C@H](COC(=O)N(c2ccccc2)c2ccc(Cl)cc2)CC1)NCCS(=O)(=O)O [Compound Ia TRIS salt, 2-(2-(((1r,4r)-4-(((4-Chlorophenyl)(phenyl)carbamoyloxy)methyl)cyclohexyl)methoxy)acetamido)ethanesulfonic Acid] | about 1.2 % by weight |  | slightly hygroscopic | 
